Assay results: ChEMBL document CHEMBL1152310, “A Dimeric sesquiterpenoid from a Malaysian Meiogyne as a new inhibitor of Bcl-xL/BakBH3 domain peptide interaction” (J Nat Prod, 2009)
pIC50: −log10 of the molar value.

Test system: KB
Assay: Cytotoxicity against human KB cells
Type: functional, cell-based

## CC(C)=CCC[C@@H](C)[C@H]1C=C[C@@]2(C(=O)O)[C@H](CC(C)=C[C@@H]2/C=C(\C)C2CCC(C(=O)O)CC2)C1 (stereo partly specified) [MEIOGYNIN A]
  pIC50: 5.40
